US20130157858A1, “METHODS AND SYSTEMS USEFUL FOR C[…] WATERMILFOIL” (priority 2011, published 2013)

Legend:
[1] = tested on: hybrid milfoil population; conditions: hybrid milfoil population (B), 6 weeks following applications of various rates, FIG. 2; cited from earlier work
[2] = tested on: auxin herbicide sensitive Eurasian milfoil biotype; conditions: Eurasian milfoil biotype (A), 6 weeks following applications of various rates, FIG. 2; cited from earlier work
[3] = tested on: tolerant hybrid milfoil lineage from an Upper Midwest US lake; assay: 14-day laboratory apical tissue assay, fluridone herbicide response (beta-carotene); assay type: in vivo, hybrid (Northern×Eurasian) watermilfoil; conditions: 14-day apical tissue assay, various rates of fluridone, compared with the susceptible reference Eurasian milfoil lineage (EWM), n=4, FIG. 3
Text: FIG. 3 depicts fluridone herbicide response of a tolerant hybrid milfoil lineage from an Upper Midwest US lake compared to response of a susceptible reference Eurasian milfoil lineage (EWM) in a 14-day laboratory apical tissue assay. […] Error bars are +1 standard deviation (n=4).

O=C(O)COc1ccc(Cl)cc1Cl [2,4-d, 2,4-dichlorophenoxyacetic acid]
response in aboveground biomass (sensitivity/tolerance) [1]: displaying auxin tolerance
response in aboveground biomass (sensitivity/tolerance) [2]: sensitive

O=C(O)COc1nc(Cl)c(Cl)cc1Cl [triclopyr]
response in aboveground biomass (sensitivity/tolerance) [1]: displaying auxin tolerance
response in aboveground biomass (sensitivity/tolerance) [2]: sensitive

fluridone
beta-carotene reduction [3]: less beta-carotene reduction for the tolerant hybrid lineage versus the reference Eurasian lineage
